What was measured:
Cathepsin D (CatD) = Cathepsin D (CatD) (Homo sapiens (Human), UniProt P07339); experiment: CatD assay; assay type: biochemical; settings: read-out: IC50 IP (μM) CatD
BACE2 = BACE2 (Homo sapiens (Human), UniProt Q9Y5Z0); experiment: In vitro enzymatic BACE2 FRET assay; assay type: biochemical; settings: read-out: IC50 IP (μM) BACE2 Enzyme
Chain of BACE2 (Q9Y5Z0 63-518): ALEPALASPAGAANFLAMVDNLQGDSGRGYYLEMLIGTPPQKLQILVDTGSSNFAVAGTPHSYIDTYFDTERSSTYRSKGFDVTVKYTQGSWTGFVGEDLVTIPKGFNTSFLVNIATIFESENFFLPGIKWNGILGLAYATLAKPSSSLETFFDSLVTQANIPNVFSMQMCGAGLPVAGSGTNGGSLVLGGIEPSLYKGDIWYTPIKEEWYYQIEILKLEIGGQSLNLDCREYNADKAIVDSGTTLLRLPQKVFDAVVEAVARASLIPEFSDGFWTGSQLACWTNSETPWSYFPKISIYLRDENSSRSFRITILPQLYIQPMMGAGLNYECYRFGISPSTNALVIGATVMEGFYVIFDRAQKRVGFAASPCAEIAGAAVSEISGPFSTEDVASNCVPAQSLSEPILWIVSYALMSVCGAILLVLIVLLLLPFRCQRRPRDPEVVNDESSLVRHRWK
Text: In Vitro Enzymatic BACE1 and BACE2 FRET (Fluorescence Resonance Energy Transfer) Assays (Enzyme Assay Data in Table 1)

Chain of Cathepsin D (CatD) (P07339 65-412, species assumed): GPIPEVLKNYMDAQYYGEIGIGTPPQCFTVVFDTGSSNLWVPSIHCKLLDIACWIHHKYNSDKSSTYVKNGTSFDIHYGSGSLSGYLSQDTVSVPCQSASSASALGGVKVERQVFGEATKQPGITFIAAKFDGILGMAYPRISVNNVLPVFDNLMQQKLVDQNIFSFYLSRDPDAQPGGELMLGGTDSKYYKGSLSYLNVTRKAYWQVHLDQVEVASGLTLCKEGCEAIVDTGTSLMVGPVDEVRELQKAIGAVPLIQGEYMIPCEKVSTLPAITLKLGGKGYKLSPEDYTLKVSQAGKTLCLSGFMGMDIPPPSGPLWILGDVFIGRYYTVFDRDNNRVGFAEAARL

IC50 (Cathepsin D (CatD))	IC50 (BACE2)	Compound
400 µM	0.0282 µM	C[C@]1(c2cc(/C=C(\F)c3ccc(C#N)cn3)ccc2F)N=C(N)S[C@@]2(C(=O)N3CCNC(=O)C3)C[C@H]21 [Example 144, 6-((Z)-2-(3-((1S,5S,6S)-3-amino-5-methyl-1-(3-oxopiperazine-1-carbonyl)-2-thia-4-azabicyclo[4.1.0]hept-3-en-5-yl)-4-fluorophenyl)-1-fluorovinyl)nicotinonitrile]
12.8 µM	0.0131 µM	C[C@]1(c2cc(/C=C(\F)c3ccc(C#N)cn3)ccc2F)N=C(N)S[C@@]2(C(=O)N3CCCC(c4ccccc4)C3)C[C@H]21 (stereo partly drawn) [Example 140, 6-((Z)-2-(3-((1S,5S,6S)-3-amino-5-methyl-1-(3-phenylpiperidine-1-carbonyl)-2-thia-4-azabicyclo[4.1.0]hept-3-en-5-yl)-4-fluorophenyl)-1-fluorovinyl)nicotinonitrile]
400 µM	0.336 µM	C[C@]1(c2cc(/C=C(\F)c3ccc(C#N)cn3)ccc2F)N=C(N)S[C@@]2(C(=O)N3CCN(CC4CC4)CC3)C[C@H]21 [Example 141, 6-((Z)-2-(3-((1S,5S,6S)-3-amino-1-(4-(cyclopropylmethyl)piperazine-1-carbonyl)-5-methyl-2-thia-4-azabicyclo[4.1.0]hept-3-en-5-yl)-4-fluorophenyl)-1-fluorovinyl)nicotinonitrile]
734 µM	0.102 µM	COC(=O)[C@]12C[C@H]1[C@@](C)(c1cc(/C=C(\F)c3ccc(Cl)cn3)ccc1F)N=C(N)S2 [Example 111, (1S,5S,6S)-methyl 3-amino-5-(5-((Z)-2-(5-chloropyridin-2-yl)-2-fluorovinyl)-2-fluorophenyl)-5-methyl-2-thia-4-azabicyclo[4.1.0]hept-3-ene-1-carboxylate]
166 µM	0.0209 µM	COC[C@@H]1CCCN1C(=O)[C@]12C[C@H]1[C@@](C)(c1cc(/C=C(\F)c3ccc(Cl)cn3)ccc1F)N=C(N)S2 [Example 117, ((1S,5S,6S)-3-amino-5-(5-((Z)-2-(5-chloropyridin-2-yl)-2-fluorovinyl)-2-fluorophenyl)-5-methyl-2-thia-4-azabicyclo[4.1.0]hept-3-en-1-yl)((S)-2-(methoxymethyl)pyrrolidin-1-yl)methanone]
202 µM	0.146 µM	CN(C)C(=O)[C@]12C[C@H]1[C@@](C)(c1cc(/C=C(\F)c3ccc(C#N)cc3F)ccc1F)N=C(N)S2 [Example 172, (1S,5S,6S)-3-amino-5-(5-((Z)-2-(4-cyano-2-fluorophenyl)-2-fluorovinyl)-2-fluorophenyl)-N,N,5-trimethyl-2-thia-4-azabicyclo[4.1.0]hept-3-ene-1-carboxamide]
> 400 µM	0.023 µM	CN(C)C(=O)[C@]12C[C@H]1[C@@](C)(c1cc(/C=C(\F)c3ccc(C#N)cn3)cnc1F)N=C(N)S2 [Example 180, (1S,5S,6S)-3-amino-5-(5-((Z)-2-(5-cyanopyridin-2-yl)-2-fluorovinyl)-2-fluoropyridin-3-yl)-N,N,5-trimethyl-2-thia-4-azabicyclo[4.1.0]hept-3-ene-1-carboxamide]
1700 µM	0.00305 µM	CN(C)C(=O)[C@]12C[C@H]1[C@@](C)(c1cc(/C=C(\F)c3ncc(C#N)cn3)ccc1F)N=C(N)S2 [Example 170, (1S,5S,6S)-3-amino-5-(5-((Z)-2-(5-cyanopyrimidin-2-yl)-2-fluorovinyl)-2-fluorophenyl)-N,N,5-trimethyl-2-thia-4-azabicyclo[4.1.0]hept-3-ene-1-carboxamide]
52.6 µM	1.56 µM	C[C@]1(c2cc(/C=C(\F)c3cnc(N4CCC4)cn3)ccc2F)N=C(N)S[C@@]2(C(=O)N3CCOCC3)C[C@H]21 [Example 351, ((1S,5S,6S)-3-amino-5-(5-((Z)-2-(5-(azetidin-1-yl)pyrazin-2-yl)-2-fluorovinyl)-2-fluorophenyl)-5-methyl-2-thia-4-azabicyclo[4.1.0]hept-3-en-1-yl)(morpholino)methanone]
231 µM	1.03 µM	COC(=O)[C@]12C[C@H]1[C@@](C)(c1cc(/C=C(\F)c3cnc(Br)cn3)ccc1F)N=C(N)S2 [Example 148, (1S,5S,6S)-methyl 3-amino-5-(5-((Z)-2-(5-bromopyrazin-2-yl)-2-fluorovinyl)-2-fluorophenyl)-5-methyl-2-thia-4-azabicyclo[4.1.0]hept-3-ene-1-carboxylate]
207 µM	2.42 µM	COC[C@]12C[C@H]1[C@@](C)(c1cc(/C=C(\F)c3cnc(OC(C)C(F)(F)F)cn3)ccc1F)N=C(N)S2 (some centres unmarked) [Example 277]
492 µM	1.84 µM	CC#CCOc1cnc(/C(F)=C/c2ccc(F)c([C@@]3(C)N=C(N)S[C@@]4(COC)C[C@H]43)c2)cn1 [Example 263]
93.8 µM	0.135 µM	CC(Oc1cnc(/C(F)=C/c2ccc(F)c([C@@]3(C)N=C(N)S[C@@]4(C(=O)N(C)C)C[C@H]43)c2)cn1)c1ncco1 (stereo partly drawn) [Example 156, (1S,5S,6S)-3-amino-5-(2-fluoro-5-((Z)-2-fluoro-2-(5-(-1-(oxazol-2-yl)ethoxy)pyrazin-2-yl)vinyl)phenyl)-N,N,5-trimethyl-2-thia-4-azabicyclo[4.1.0]hept-3-ene-1-carboxamide]

More lines, now with the values behind:

Compound	IC50 (Cathepsin D (CatD))	IC50 (BACE2)
COC[C@]12C[C@H]1[C@@](C)(c1cc(/C=C(\F)c3cnc(OC[C@H](C)OC)cn3)ccc1F)N=C(N)S2 [Example 265]	1320 µM	3.86 µM
COC[C@]12C[C@H]1[C@@](C)(c1cc(/C=C(\F)c3cnc(OCC4CC(F)(F)C4)cn3)ccc1F)N=C(N)S2 [Example 278]	199 µM	1.32 µM
C[C@]1(c2cc(/C=C(\F)c3ccc(C#N)cn3)cnc2F)N=C(N)S[C@@]2(C(=O)N3CCOCC3)C[C@H]21 [Example 183, 6-((Z)-2-(5-((1S,5S,6S)-3-amino-5-methyl-1-(morpholine-4-carbonyl)-2-thia-4-azabicyclo[4.1.0]hept-3-en-5-yl)-6-fluoropyridin-3-yl)-1-fluorovinyl)nicotinonitrile]	2140 µM	0.241 µM
COC[C@]12C[C@H]1[C@@](C)(c1cc(/C=C(\F)c3cnc(OCCC(F)(F)F)cn3)ccc1F)N=C(N)S2 [Example 268]	245 µM	1.55 µM
C[C@]1(c2cc(/C=C(\F)c3ccc(C#N)cn3)ccc2F)N=C(N)S[C@@]2(C(=O)N3CCN(c4ccccc4)CC3)C[C@H]21 [Example 131, 6-((Z)-2-(3-((1S,5S,6S)-3-amino-5-methyl-1-(4-phenylpiperazine-1-carbonyl)-2-thia-4-azabicyclo[4.1.0]hept-3-en-5-yl)-4-fluorophenyl)-1-fluorovinyl)nicotinonitrile]	96.9 µM	0.015 µM
COC[C@]12C[C@H]1[C@@](C)(c1cc(/C=C(\F)c3cnc(Cl)cn3)ccc1F)N=C(N)S2 [Example 261, (1S,5S,6S)-5-(5-((Z)-2-(5-chloropyrazin-2-yl)-2-fluorovinyl)-2-fluorophenyl)-1-(methoxymethyl)-5-methyl-2-thia-4-azabicyclo[4.1.0]hept-3-en-3-amine]	357 µM	0.08 µM
COC[C@]12C[C@H]1[C@@](C)(c1cc(/C=C(\F)c3cnc(OCc4cc(C)no4)cn3)ccc1F)N=C(N)S2 [Example 276]	156 µM	0.966 µM
COC[C@]12C[C@H]1[C@@](C)(c1cc(/C=C(\F)c3cnc(OCC4CCC4)cn3)ccc1F)N=C(N)S2 [Example 271]	120 µM	1.84 µM
C[C@]1(c2cc(/C=C(\F)c3cnc(Cl)cn3)ccc2F)N=C(N)S[C@]2(CO)[C@H]1C2(F)F [Example 252, ((1S,5S,6R)-3-amino-5-(5-((Z)-2-(5-chloropyrazin-2-yl)-2-fluorovinyl)-2-fluorophenyl)-7,7-difluoro-5-methyl-2-thia-4-azabicyclo[4.1.0]hept-3-en-1-yl)methanol]	158 µM	0.151 µM
COC(=O)[C@]12C[C@H]1[C@@](C)(c1cc(/C=C(\F)c3ccc(Br)cn3)ccc1F)N=C(N)S2 [Example 105, (1S,5S,6S)-methyl 3-amino-5-(5-((Z)-2-(5-bromopyridin-2-yl)-2-fluorovinyl)-2-fluorophenyl)-5-methyl-2-thia-4-azabicyclo[4.1.0]hept-3-ene-1-carboxylate]	302 µM	0.127 µM
CN(C)C(=O)[C@]12C[C@H]1[C@@](C)(c1cc(/C=C(\F)c3ccc(Cl)cn3)cnc1F)N=C(N)S2 [Example 178, (1S,5S,6S)-3-amino-5-(5-((Z)-2-(5-chloropyridin-2-yl)-2-fluorovinyl)-2-fluoropyridin-3-yl)-N,N,5-trimethyl-2-thia-4-azabicyclo[4.1.0]hept-3-ene-1-carboxamide]	609 µM	0.00574 µM
CC(=O)COc1cnc(/C(F)=C/c2cnc(F)c([C@@]3(C)N=C(N)S[C@@]4(C(=O)N(C)C)C[C@H]43)c2)cn1 [Example 288, (1S,5S,6S)-3-amino-5-(2-fluoro-5-((Z)-2-fluoro-2-(5-(2-oxopropoxy)pyrazin-2-yl)vinyl)pyridin-3-yl)-N,N,5-trimethyl-2-thia-4-azabicyclo[4.1.0]hept-3-ene-1-carboxamide]	175 µM	0.294 µM
C[C@]1(c2cc(/C=C(\F)c3ccc(C#N)cn3)cnc2F)N=C(N)S[C@@]2(C(=O)N3CCC(F)(F)CC3)C[C@H]21 [Example 260, 6-((Z)-2-(5-((1S,5S,6S)-3-amino-1-(4,4-difluoropiperidine-1-carbonyl)-5-methyl-2-thia-4-azabicyclo[4.1.0]hept-3-en-5-yl)-6-fluoropyridin-3-yl)-1-fluorovinyl)nicotinonitrile]	84.1 µM	0.115 µM
COC[C@]12C[C@H]1[C@@](C)(c1cc(/C=C(\F)c3cnc(OCC4CCO4)cn3)ccc1F)N=C(N)S2 (some centres unmarked) [Example 273]	647 µM	5.11 µM
C[C@]1(c2cc(/C=C(\F)c3ccc(C#N)cn3)ccc2F)N=C(N)S[C@@]2(C(=O)N3CC[C@@H]4CCCC[C@H]4C3)C[C@H]21 [Example 135, 6-((Z)-2-(3-((1S,5S,6S)-3-amino-1-((4aS,8aR)-decahydroisoquinoline-2-carbonyl)-5-methyl-2-thia-4-azabicyclo[4.1.0]hept-3-en-5-yl)-4-fluorophenyl)-1-fluorovinyl)nicotinonitrile]	5.5 µM	0.00166 µM
